Data as given in the NIST ThermoML archive (doi:10.1016/j.fluid.2012.01.029).
± gives the expanded uncertainty stated by the source.

Details: 293.15 K; 101.33 kPa; Liquid; Vibrating tube method

Compound | mass density
NCCO [2-aminoethan-1-ol] | 1017.9 ± 0.3 kg/m3
CN(CCO)CCO [N-methyldiethanolamine] | 1037.7 ± 0.3 kg/m3
